Assay results: PMC10657792, “Downstream Allosteric Modulation of NMDA Receptors by 3-Benzazepine Derivatives” (Molecular Neurobiology, 2023)

Legend:
Experiment in all cases: TEVC recording in X. laevis oocytes, GluN2B mutant screening
Assay type in all cases: cell-based
GluN1b wt/ GluN2B F176A = GluN1b wt/ GluN2B F176A (Rattus norvegicus, UniProt P35439+Q00960, F176A)
Protocol: (§1) Single point mutations were incorporated into template DNA (GluN1-1b wt/ pSGEM and GluN2B wt/ pSGEM) by using the QuikChange II XL site-directed mutagenesis kit (Agilent Technologies, Germany). Mutagenesis primers were designed using the QuikChange Primer Design Program (Agilent) and provided by Microsynth (Microsynth AG, Balgach, Switzerland). For mutation of the desired amino acid in the gene, PCR amplification was performed with the respective mutagenesis primers (Eppendorf MasterCycler Gradient, Eppendorf Hamburg, Germany). Mutations were verified by automated DNA sequencing. Constructs were linearized with PacI (GluN1) or NheI (GluN2B). cRNA was prepared byin vitrotranscription using the mMessage mMachine T7 kit (Life Technologies, Darmstadt, Germany).
(§2) The NMDAR was expressed in stage V and VI oocytes originated from X. laevis. Oocytes were provided by Ecocyte Bioscience (Dortmund, Germany), and equimolar amounts of wild-type and mutated GluN1 and GluN2B cRNA were injected (0.8 ng each). The oocytes were incubated in Barth’s solution, containing (mmol l^−1): 88 NaCl, 1 KCl, 0.4 CaCl2, 0.33 Ca(NO3)2, 0.6 MgSO4, 5 TRIS–HCl, 2.4 NaHCO3, supplemented with 80 mg l^−1 theophylline, 63 mg l^−1 benzylpenicillin, 40 mg l^−1 streptomycin, and 100 mg l^−1 gentamycin and maintained at 18 °C until usage. After injection, the oocytes were incubated for 5 days at 18 °C. Subsequently, the activity of the expressed NMDARs in the oocytes was recorded by two-electrode voltage clamp (TEVC).
(§3) The compounds were retrieved as 10 mM stock solutions in DMSO and were subsequently diluted with agonist solution and adjusted to 0.1% DMSO concentration. Inhibition of each compound was measured via TEVC in X. laevis oocytes at room temperature using a Turbo Tec 10CX amplifier (NPI electronic, Tamm, Germany), NI USB 6221 DA/AD Interface (National Instruments, Austin, USA), and GePulse Software (Dr. Michael Pusch, Genova, Italy). Ba^2+-Ringer, consisting of 10 mM HEPES, 90 mM NaCl, 1 mM KCl, and 1.5 mM BaCl2, adjusted to pH 7.4, was used for TEVC measurements. Agonist solution containing 10 µM glycine and 10 µM (S)-glutamate was prepared in Ba^2+-Ringer, and the measurements were performed at a holding potential of − 70 mV, using electrodes with a glass capillary filled with 3 M KCl and a resistance between 0.5 and 1.5 MΩ. The compounds were tested by applying ascending concentrations, ranging from 1 to 30,000 nM, in at least six oocytes. Example traces for all recorded conditions can be found in Supplementary Figs. S2–S9.
(§4) TEVC data were analyzed using Ana (Dr. Michael Pusch, Genova, Italy), and statistics were performed using OriginPro 2020 (OriginLab Corporation, Northampton, USA). The inhibitory effect of each compound is calculated using the following equation: inhibition=1-Ic-Ih/Ia-Ih where Ih describes the current in the absence of agonists; Ia represents the steady-state current in the presence of the agonists; and Ic is defined as the steady-state after binding of agonist and compound. All dose response curves are fitted to the following logistic equation: y=A1-A2/1+x/x0^p+A2 where A1 describes the minimal inhibition of a compound and was set to 0; A2 represents the maximal inhibition of a compound; p is the slope of the curve; x0 is defined as the concentration at half-maximal inhibition; and x is the tested concentration. Data were statistically analyzed by one-way ANOVA and Tukey post-hoc mean comparison test in OriginPro 2020 (OriginLab Corporation, Northampton, USA). p values are indicated by * for p < 0.05, ** for p < 0.01, and *** for p < 0.001.

GluN1a wt/ GluN2B F176A = GluN1a wt/ GluN2B F176A (Rattus norvegicus, UniProt P35439+Q00960, F176A); settings: fitted curve
Protocol: as §1, §2, §3, §4

GluN1a wt/ GluN2B F194A = GluN1a wt/ GluN2B F194A (Rattus norvegicus, UniProt P35439+Q00960, F194A); settings: fitted curve
Protocol: as §1, §2, §3, §4

GluN1b wt/ GluN2B F114A = GluN1b wt/ GluN2B F114A (Rattus norvegicus, UniProt P35439+Q00960, F114A); settings: fitted curve
Protocol: as §1, §2, §3, §4

GluN1b wt/ GluN2B F194A = GluN1b wt/ GluN2B F194A (Rattus norvegicus, UniProt P35439+Q00960, F194A)
Protocol: as §1, §2, §3, §4

GluN1b wt/ GluN2B Q110A = GluN1b wt/ GluN2B Q110A (Rattus norvegicus, UniProt P35439+Q00960, Q110A)
Protocol: as §1, §2, §3, §4

[1] = biological target: GluN1b wt/ GluN2B N192A/F194A (Rattus norvegicus, UniProt P35439+Q00960, F194A/N192A)
Protocol: as §1, §2, §3, §4

GluN1b wt/ GluN2B N192A = GluN1b wt/ GluN2B N192A (Rattus norvegicus, UniProt P35439+Q00960, N192A)
Protocol: as §1, §2, §3, §4

GluN1b wt/ GluN2B E236A = GluN1b wt/ GluN2B E236A (Rattus norvegicus, UniProt P35439+Q00960, E236A)
Protocol: as §1, §2, §3, §4

[2] = agonists 10 µM glycine + 10 µM (S)-glutamate, fitted curve
[3] = agonists 10 µM glycine + 10 µM (S)-glutamate

Chain of GluN1b wt/ GluN2B N192A/F194A (Q00960 27-1482 N192A/F194A, other chains not shown): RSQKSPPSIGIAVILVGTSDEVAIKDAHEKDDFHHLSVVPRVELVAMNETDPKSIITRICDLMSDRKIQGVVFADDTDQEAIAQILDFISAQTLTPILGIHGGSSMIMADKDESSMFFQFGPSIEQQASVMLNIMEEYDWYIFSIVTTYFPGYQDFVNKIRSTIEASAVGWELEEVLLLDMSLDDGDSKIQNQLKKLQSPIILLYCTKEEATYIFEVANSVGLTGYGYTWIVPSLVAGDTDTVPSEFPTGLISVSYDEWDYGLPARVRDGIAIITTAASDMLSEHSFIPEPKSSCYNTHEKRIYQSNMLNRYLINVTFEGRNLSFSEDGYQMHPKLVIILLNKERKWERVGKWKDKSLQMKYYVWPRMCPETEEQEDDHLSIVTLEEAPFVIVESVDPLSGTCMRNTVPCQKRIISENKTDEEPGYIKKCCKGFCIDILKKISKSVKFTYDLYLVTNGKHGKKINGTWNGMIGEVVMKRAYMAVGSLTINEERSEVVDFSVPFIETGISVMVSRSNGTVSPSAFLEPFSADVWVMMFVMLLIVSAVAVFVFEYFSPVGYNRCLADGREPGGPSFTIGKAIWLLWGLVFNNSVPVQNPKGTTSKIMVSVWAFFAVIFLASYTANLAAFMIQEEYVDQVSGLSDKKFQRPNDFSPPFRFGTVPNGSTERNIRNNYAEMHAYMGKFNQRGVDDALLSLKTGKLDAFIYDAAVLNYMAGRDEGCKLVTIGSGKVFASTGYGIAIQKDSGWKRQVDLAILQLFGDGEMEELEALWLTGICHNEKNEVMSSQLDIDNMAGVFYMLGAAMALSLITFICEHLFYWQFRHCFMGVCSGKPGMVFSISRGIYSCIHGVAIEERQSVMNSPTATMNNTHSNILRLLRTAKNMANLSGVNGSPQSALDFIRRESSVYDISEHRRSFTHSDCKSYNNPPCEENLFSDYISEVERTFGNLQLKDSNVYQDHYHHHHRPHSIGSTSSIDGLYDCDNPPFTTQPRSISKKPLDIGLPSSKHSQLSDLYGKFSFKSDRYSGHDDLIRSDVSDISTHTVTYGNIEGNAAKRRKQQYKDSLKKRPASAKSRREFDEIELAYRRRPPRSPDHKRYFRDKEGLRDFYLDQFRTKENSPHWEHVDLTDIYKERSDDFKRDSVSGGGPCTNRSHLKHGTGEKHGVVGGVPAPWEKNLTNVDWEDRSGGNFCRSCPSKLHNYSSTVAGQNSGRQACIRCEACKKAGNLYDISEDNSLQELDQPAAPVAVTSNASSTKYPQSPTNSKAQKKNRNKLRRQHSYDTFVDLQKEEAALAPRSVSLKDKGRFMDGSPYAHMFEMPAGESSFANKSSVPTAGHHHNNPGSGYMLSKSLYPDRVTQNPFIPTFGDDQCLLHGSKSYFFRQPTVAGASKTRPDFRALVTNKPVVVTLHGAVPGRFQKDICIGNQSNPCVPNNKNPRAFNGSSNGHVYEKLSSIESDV
Chain of GluN1b wt/ GluN2B F176A (Q00960 27-1482 F176A, other chains not shown): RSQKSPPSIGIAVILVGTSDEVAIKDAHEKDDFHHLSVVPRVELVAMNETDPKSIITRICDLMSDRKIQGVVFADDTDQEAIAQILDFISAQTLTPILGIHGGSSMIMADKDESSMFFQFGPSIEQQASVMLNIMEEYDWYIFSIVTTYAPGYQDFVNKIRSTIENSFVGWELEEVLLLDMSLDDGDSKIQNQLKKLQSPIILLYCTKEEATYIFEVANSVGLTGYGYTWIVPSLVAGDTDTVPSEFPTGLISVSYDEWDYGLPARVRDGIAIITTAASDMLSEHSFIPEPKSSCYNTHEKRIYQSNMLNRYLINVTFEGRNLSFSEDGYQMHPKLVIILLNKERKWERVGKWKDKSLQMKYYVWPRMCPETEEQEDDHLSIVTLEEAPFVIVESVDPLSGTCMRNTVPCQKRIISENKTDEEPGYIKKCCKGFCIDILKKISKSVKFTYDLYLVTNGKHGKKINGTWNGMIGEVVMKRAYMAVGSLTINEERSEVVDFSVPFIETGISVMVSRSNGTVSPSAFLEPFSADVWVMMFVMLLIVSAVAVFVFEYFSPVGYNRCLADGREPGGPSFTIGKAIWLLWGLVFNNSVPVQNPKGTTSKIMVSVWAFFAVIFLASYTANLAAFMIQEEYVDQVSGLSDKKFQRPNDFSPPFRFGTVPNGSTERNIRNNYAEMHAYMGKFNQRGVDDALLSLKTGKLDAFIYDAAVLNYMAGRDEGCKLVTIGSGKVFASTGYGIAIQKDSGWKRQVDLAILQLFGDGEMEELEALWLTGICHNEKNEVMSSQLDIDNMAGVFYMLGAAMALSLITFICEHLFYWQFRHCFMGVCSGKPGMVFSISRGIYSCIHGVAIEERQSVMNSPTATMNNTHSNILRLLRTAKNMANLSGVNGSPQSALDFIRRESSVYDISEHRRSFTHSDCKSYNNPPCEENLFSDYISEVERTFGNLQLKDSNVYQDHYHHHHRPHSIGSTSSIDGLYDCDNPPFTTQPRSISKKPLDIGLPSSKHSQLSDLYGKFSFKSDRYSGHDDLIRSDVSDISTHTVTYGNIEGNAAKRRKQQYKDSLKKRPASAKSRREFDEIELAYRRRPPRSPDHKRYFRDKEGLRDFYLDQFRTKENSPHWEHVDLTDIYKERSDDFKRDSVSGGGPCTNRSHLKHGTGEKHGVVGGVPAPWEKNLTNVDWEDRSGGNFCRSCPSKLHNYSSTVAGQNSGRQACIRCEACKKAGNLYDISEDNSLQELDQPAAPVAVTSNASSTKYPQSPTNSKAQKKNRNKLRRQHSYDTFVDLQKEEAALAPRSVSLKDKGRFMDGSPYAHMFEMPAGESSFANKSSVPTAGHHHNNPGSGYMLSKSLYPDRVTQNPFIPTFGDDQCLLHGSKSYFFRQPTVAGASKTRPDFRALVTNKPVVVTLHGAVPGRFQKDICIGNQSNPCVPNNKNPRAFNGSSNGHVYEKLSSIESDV
Chain of GluN1b wt/ GluN2B F194A (Q00960 27-1482 F194A, other chains not shown): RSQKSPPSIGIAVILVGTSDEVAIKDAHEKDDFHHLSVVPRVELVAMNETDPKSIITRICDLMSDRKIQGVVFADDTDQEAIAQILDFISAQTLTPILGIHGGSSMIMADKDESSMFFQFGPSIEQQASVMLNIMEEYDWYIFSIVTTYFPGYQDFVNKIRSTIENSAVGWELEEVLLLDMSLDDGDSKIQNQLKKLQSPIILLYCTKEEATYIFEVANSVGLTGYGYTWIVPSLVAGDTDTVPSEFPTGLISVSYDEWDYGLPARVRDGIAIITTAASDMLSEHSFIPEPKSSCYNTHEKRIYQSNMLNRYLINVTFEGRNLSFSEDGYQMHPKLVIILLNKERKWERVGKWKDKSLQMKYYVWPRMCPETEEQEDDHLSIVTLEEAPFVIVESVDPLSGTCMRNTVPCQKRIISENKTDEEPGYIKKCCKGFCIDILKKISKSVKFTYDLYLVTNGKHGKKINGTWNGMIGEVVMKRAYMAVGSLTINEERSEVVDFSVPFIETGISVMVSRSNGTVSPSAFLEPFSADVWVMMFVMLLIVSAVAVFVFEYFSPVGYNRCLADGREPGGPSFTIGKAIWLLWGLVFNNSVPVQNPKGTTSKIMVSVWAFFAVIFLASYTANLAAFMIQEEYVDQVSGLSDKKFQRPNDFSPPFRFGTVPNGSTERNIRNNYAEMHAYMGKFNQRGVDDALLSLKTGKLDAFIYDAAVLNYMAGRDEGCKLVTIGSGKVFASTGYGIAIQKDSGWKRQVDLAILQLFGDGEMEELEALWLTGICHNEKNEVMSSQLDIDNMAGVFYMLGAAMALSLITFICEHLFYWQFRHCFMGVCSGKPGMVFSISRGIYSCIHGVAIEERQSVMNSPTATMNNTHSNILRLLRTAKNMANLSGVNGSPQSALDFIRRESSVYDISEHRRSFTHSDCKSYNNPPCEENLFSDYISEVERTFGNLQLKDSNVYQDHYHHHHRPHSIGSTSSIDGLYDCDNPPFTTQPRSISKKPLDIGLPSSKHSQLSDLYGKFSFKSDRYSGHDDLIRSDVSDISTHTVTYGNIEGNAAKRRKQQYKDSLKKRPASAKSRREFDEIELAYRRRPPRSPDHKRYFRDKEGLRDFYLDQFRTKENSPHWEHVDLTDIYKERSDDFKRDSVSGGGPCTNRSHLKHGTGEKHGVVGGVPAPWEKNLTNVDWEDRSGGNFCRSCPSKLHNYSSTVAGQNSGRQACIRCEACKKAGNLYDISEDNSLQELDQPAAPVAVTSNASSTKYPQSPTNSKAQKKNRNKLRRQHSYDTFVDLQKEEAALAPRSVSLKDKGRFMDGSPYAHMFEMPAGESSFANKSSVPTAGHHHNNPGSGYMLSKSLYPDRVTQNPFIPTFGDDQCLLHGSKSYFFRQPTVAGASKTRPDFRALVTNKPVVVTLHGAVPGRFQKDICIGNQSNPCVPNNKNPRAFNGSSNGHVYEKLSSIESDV

SMILES: Oc1ccc2c(c1)CCN(CCCCc1ccccc1F)C[C@@H]2O [(R)-OF-NB1]
- inhibition at 1 µM (GluN1b wt/ GluN2B F176A; GluN1-1b/F176A, compound concentration 1 μM, single oocytes): 17.7%
- inhibition at 10 µM (GluN1b wt/ GluN2B F176A; GluN1-1b/F176A, compound concentration 10 μM, single oocytes): 29.9%
- IC50 (GluN1b wt/ GluN2B F176A; [2]): 13.6 µM
- Hill coefficient (GluN1b wt/ GluN2B F176A; fitted curve): 0.5
- Hill coefficient (GluN1a wt/ GluN2B F176A): 0.5
- IC50 (GluN1a wt/ GluN2B F194A; [3]): 16.6 µM
- Hill coefficient (GluN1a wt/ GluN2B F194A): 0.4
- IC50 (GluN1b wt/ GluN2B F114A; [3]): 14.2 µM
- Hill coefficient (GluN1b wt/ GluN2B F114A): 0.9
- inhibition at 1 µM (GluN1b wt/ GluN2B F194A; GluN1-1b GluN2B F194A, compound concentration 1 μM, single oocytes): 39.3%
- inhibition at 30 µM (GluN1b wt/ GluN2B F194A; GluN1-1b GluN2B F194A, compound concentration 30 μM, single oocytes): 51.8%
- IC50 (GluN1b wt/ GluN2B F194A; [2]): 3.84 µM
- Hill coefficient (GluN1b wt/ GluN2B F194A; fitted curve): 0.5
- inhibition at 10 µM (GluN1b wt/ GluN2B Q110A; GluN1-1b/Q110A, compound concentration 10 μM, single oocytes): 78.4%
- inhibition at 30 µM (GluN1b wt/ GluN2B Q110A; GluN1-1b/Q110A, compound concentration 30 μM, single oocytes): 84.2%
- IC50 (GluN1b wt/ GluN2B Q110A; [2]): 0.519 µM
- Hill coefficient (GluN1b wt/ GluN2B Q110A; fitted curve): 1.2
- inhibition at 1 µM ([1]; GluN1-1b GluN2B N192A/F194A, compound concentration 1 μM, single oocytes): 23.8%
- inhibition at 10 µM ([1]; GluN1-1b GluN2B N192A/F194A, compound concentration 10 μM, single oocytes): 35.6%
- inhibition at 30 µM ([1]; GluN1-1b GluN2B N192A/F194A, compound concentration 30 μM, single oocytes): 37%
- IC50 [1, 2]: 7.52 µM
- Hill coefficient ([1]; fitted curve): 0.3
- inhibition at 10 µM (GluN1b wt/ GluN2B N192A; GluN1-1b GluN2B N192A, compound concentration 10 μM, single oocytes): 69.9%
- inhibition at 30 µM (GluN1b wt/ GluN2B N192A; GluN1-1b GluN2B N192A, compound concentration 30 μM, single oocytes): 76.3%
- IC50 (GluN1b wt/ GluN2B N192A; [2]): 0.567 µM
- Hill coefficient (GluN1b wt/ GluN2B N192A; fitted curve): 1.3
- inhibition at 1 µM (GluN1b wt/ GluN2B E236A; GluN1-1b/E236A, compound concentration 1 μM, single oocytes): 39.5%
- inhibition at 10 µM (GluN1b wt/ GluN2B E236A; GluN1-1b/E236A, compound concentration 10 μM, single oocytes): 51.9%
- inhibition at 30 µM (GluN1b wt/ GluN2B E236A; GluN1-1b/E236A, compound concentration 30 μM, single oocytes): 61.6%
- IC50 (GluN1b wt/ GluN2B E236A; [2]): 3.15 µM
- Hill coefficient (GluN1b wt/ GluN2B E236A; fitted curve): 0.6
